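Assay format: 96-well plates, 48-hour exposure. At the GI50, growth is halved.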 The source made the active and inactive calls. No stated cut-off is given here; in the data, active = GI50 up to about 1.1 µM and inactive = higher.
Assays:
Assay in all cases: NCI-60 cell line screen, 48 h
[1] = test system: 786-0
[2] = test system: A549
[3] = test system: ACHN
[4] = test system: CAKI-1
[5] = test system: CCRF-CEM
[6] = test system: HOP-92
[7] = test system: KM12
[8] = test system: LOX IMVI
[9] = test system: NCI-H226
[10] = test system: NCI-H522
[11] = test system: OVCAR-8
[12] = test system: RXF 393
[13] = test system: SW-620
[14] = test system: TK-10
[15] = test system: U-251
[16] = test system: UO-31
[17] = test system: M14
[18] = test system: SK-MEL-5

Row | SMILES | GI50 [1] | GI50 [2] | GI50 [3] | GI50 [4] | GI50 [5] | GI50 [6] | GI50 [7] | GI50 [8] | GI50 [9] | GI50 [10] | GI50 [11] | GI50 [12] | GI50 [13] | GI50 [14] | GI50 [15] | GI50 [16] | GI50 [17] | GI50 [18]
1 | Fc1ccc(C2SCc3nc4ccccc4n32)cc1Cl (centres undefined) | 27.7 µM (inactive) | 25.8 µM (inactive) | 25.5 µM (inactive) | 13 µM (inactive) | 25.6 µM (inactive) | 12 µM (inactive) | 16.1 µM (inactive) | 17.9 µM (inactive) | 23.2 µM (inactive) | 13.7 µM (inactive) | 21.3 µM (inactive) | 19.4 µM (inactive) | 36.1 µM (inactive) | 27.8 µM (inactive) | 19.4 µM (inactive) | 16.7 µM (inactive) | – | –
2 | Cc1cc(C)nc(NS(=O)(=O)c2ccc(Nc3c4ccccc4nc4c(C(=O)NCCN(C)C)cccc34)cc2)n1 | 11.6 µM (inactive) | 3.13 µM (inactive) | 3.49 µM (inactive) | – | 1.26 µM (inactive) | – | 3.43 µM (inactive) | 1.74 µM (inactive) | 2.17 µM (inactive) | 0.566 µM (active) | 0.675 µM (active) | 6.32 µM (inactive) | 0.764 µM (active) | 10.6 µM (inactive) | 3.72 µM (inactive) | 1.49 µM (inactive) | 6.5 µM (inactive) | 5.75 µM (inactive)
3 | O=C(N/C(=C\c1ccc(/C=C(\NC(=O)c2ccccc2)c2nc3ccccc3[nH]2)cc1)c1nc2ccccc2[nH]1)c1ccccc1 | > 100 µM (inactive) | > 100 µM (inactive) | > 100 µM (inactive) | > 100 µM (inactive) | > 100 µM (inactive) | > 100 µM (inactive) | – | > 100 µM (inactive) | – | > 100 µM (inactive) | > 100 µM (inactive) | > 100 µM (inactive) | > 100 µM (inactive) | > 100 µM (inactive) | > 100 µM (inactive) | > 100 µM (inactive) | 57.9 µM (inactive) | > 100 µM (inactive)
4 | N/N=C(\CCN1CCCC1)CC(c1ccccc1)c1c(O)c2ccccc2oc1=O (centres undefined) | > 100 µM (inactive) | > 100 µM (inactive) | > 100 µM (inactive) | > 100 µM (inactive) | > 100 µM (inactive) | 49 µM (inactive) | > 100 µM (inactive) | > 100 µM (inactive) | > 100 µM (inactive) | > 100 µM (inactive) | > 100 µM (inactive) | > 100 µM (inactive) | > 100 µM (inactive) | > 100 µM (inactive) | > 100 µM (inactive) | – | > 100 µM (inactive) | > 100 µM (inactive)
5 | Cc1nc2ccccc2[s+]c1-c1cnc(NC#N)nc1C(=O)Nc1cccc(Cl)c1 | > 100 µM (inactive) | > 100 µM (inactive) | > 100 µM (inactive) | > 100 µM (inactive) | > 100 µM (inactive) | – | > 100 µM (inactive) | > 100 µM (inactive) | > 100 µM (inactive) | > 100 µM (inactive) | > 100 µM (inactive) | > 100 µM (inactive) | > 100 µM (inactive) | > 100 µM (inactive) | > 100 µM (inactive) | > 100 µM (inactive) | > 100 µM (inactive) | > 100 µM (inactive)
6 | COc1cc2c(cc1OC)C1Cc3cc(OC)c(OC)cc3N1CC2 (centres undefined) | 17.7 µM (inactive) | 26.9 µM (inactive) | 22.3 µM (inactive) | 21.9 µM (inactive) | 43.5 µM (inactive) | 33 µM (inactive) | 28.6 µM (inactive) | – | 20.3 µM (inactive) | 12.2 µM (inactive) | 34.8 µM (inactive) | – | 29.9 µM (inactive) | 23 µM (inactive) | 35.4 µM (inactive) | 36.9 µM (inactive) | 20 µM (inactive) | –
7 | N#CC(C(=O)C(=O)C(C#N)c1ccc(Br)cc1)c1ccc(Br)cc1 (centres undefined) | 12.9 µM (inactive) | 23.3 µM (inactive) | 12.6 µM (inactive) | 21 µM (inactive) | 4.47 µM (inactive) | 13.3 µM (inactive) | 10.6 µM (inactive) | 11 µM (inactive) | 18.1 µM (inactive) | – | – | 4.26 µM (inactive) | 14.7 µM (inactive) | 16.8 µM (inactive) | 11.6 µM (inactive) | 16.3 µM (inactive) | 14.2 µM (inactive) | 14.4 µM (inactive)
8 | CN(C)CCC(/C=C/c1ccccc1)=N\Nc1ccc(Cl)c(Cl)c1 | 2.69 µM (inactive) | 3.13 µM (inactive) | 1.92 µM (inactive) | 2.61 µM (inactive) | 2.91 µM (inactive) | 1.41 µM (inactive) | 2.05 µM (inactive) | 1.99 µM (inactive) | – | 2.1 µM (inactive) | 2.7 µM (inactive) | 2.74 µM (inactive) | 3.45 µM (inactive) | 2.38 µM (inactive) | 4.59 µM (inactive) | 1.64 µM (inactive) | 2.72 µM (inactive) | 4.49 µM (inactive)
9 | O=S(=O)(N/N=C/c1ccc(Cl)cc1Cl)c1ccccc1 | > 100 µM (inactive) | > 100 µM (inactive) | > 100 µM (inactive) | 59.4 µM (inactive) | 38.5 µM (inactive) | 34.8 µM (inactive) | 51.2 µM (inactive) | 97.9 µM (inactive) | 99.3 µM (inactive) | – | 71.4 µM (inactive) | 77.1 µM (inactive) | 78.9 µM (inactive) | > 100 µM (inactive) | 91.2 µM (inactive) | > 100 µM (inactive) | 81.1 µM (inactive) | > 100 µM (inactive)
10 | Cc1ccc(S(=O)(=O)OC2CS[S+]([O-])CC2OS(=O)(=O)c2ccc(C)cc2)cc1 (centres undefined) | 16.8 µM (inactive) | 19 µM (inactive) | 17 µM (inactive) | 12.9 µM (inactive) | – | 13 µM (inactive) | 17.3 µM (inactive) | 12.1 µM (inactive) | 19.4 µM (inactive) | 10.3 µM (inactive) | 10.6 µM (inactive) | 8.22 µM (inactive) | 6.55 µM (inactive) | 15.1 µM (inactive) | 14.8 µM (inactive) | 18.9 µM (inactive) | 14.3 µM (inactive) | 16 µM (inactive)
11 | NC(=O)c1csc(C2C=CC(CO)O2)n1 (centres undefined) | > 100 µM (inactive) | > 100 µM (inactive) | > 100 µM (inactive) | > 100 µM (inactive) | > 100 µM (inactive) | > 100 µM (inactive) | > 10 µM (inactive) | > 100 µM (inactive) | > 100 µM (inactive) | > 100 µM (inactive) | > 100 µM (inactive) | – | > 100 µM (inactive) | > 100 µM (inactive) | > 100 µM (inactive) | > 100 µM (inactive) | > 100 µM (inactive) | –
12 | COC(=O)C1=C(O)c2cc(-c3ccccc3)c(-c3ccccc3)c(C#N)c2NC(=O)C1 | 8.38 µM (inactive) | 3.5 µM (inactive) | 24 µM (inactive) | 7.03 µM (inactive) | 7.14 µM (inactive) | – | 7.01 µM (inactive) | – | – | – | 4.13 µM (inactive) | 1.7 µM (inactive) | – | – | 7.69 µM (inactive) | 1.4 µM (inactive) | 4.99 µM (inactive) | –
13 | CSC(C1c2ccccc2N(c2ccc(C)cc2)C2=NC(=O)N(C)C(=O)C21Cl)S(=O)(=O)c1ccc(C)cc1 (centres undefined) | 18.5 µM (inactive) | 34 µM (inactive) | 31.4 µM (inactive) | 19.8 µM (inactive) | 10.8 µM (inactive) | 11 µM (inactive) | – | 20.5 µM (inactive) | 22.2 µM (inactive) | 13.4 µM (inactive) | 27.8 µM (inactive) | – | 30.6 µM (inactive) | 48.6 µM (inactive) | 19.3 µM (inactive) | 22.4 µM (inactive) | 26.9 µM (inactive) | 17.3 µM (inactive)
14 | Cc1cc2c(C)n[nH]c2c(C(=O)O)c1C | > 100 µM (inactive) | > 100 µM (inactive) | > 100 µM (inactive) | > 100 µM (inactive) | > 100 µM (inactive) | < 0.01 µM (active) | > 100 µM (inactive) | – | – | – | > 100 µM (inactive) | > 100 µM (inactive) | > 100 µM (inactive) | – | > 100 µM (inactive) | 85.5 µM (inactive) | – | –
15 | CC(=O)c1c(O)c2c([nH]c1=O)CCCC2 | > 100 µM (inactive) | 30 µM (inactive) | > 100 µM (inactive) | > 100 µM (inactive) | > 100 µM (inactive) | > 100 µM (inactive) | – | 20.1 µM (inactive) | – | – | 82.2 µM (inactive) | 22.3 µM (inactive) | > 100 µM (inactive) | > 100 µM (inactive) | 23.6 µM (inactive) | 17.2 µM (inactive) | 39.3 µM (inactive) | –
16 | C/C(CC(=O)Nc1ccccc1)=N\NC(N)=S | > 100 µM (inactive) | > 100 µM (inactive) | – | – | > 100 µM (inactive) | > 100 µM (inactive) | > 100 µM (inactive) | > 100 µM (inactive) | > 100 µM (inactive) | > 100 µM (inactive) | > 100 µM (inactive) | > 100 µM (inactive) | > 100 µM (inactive) | > 100 µM (inactive) | > 100 µM (inactive) | > 100 µM (inactive) | > 100 µM (inactive) | > 100 µM (inactive)
17 | O=C(CC1(O)C(=O)Nc2c(Cl)ccc(Cl)c21)c1ccc(Cl)cc1 (centres undefined) | 16.7 µM (inactive) | 45.5 µM (inactive) | 20.8 µM (inactive) | 51.1 µM (inactive) | – | 37.8 µM (inactive) | 28.4 µM (inactive) | 18.5 µM (inactive) | 38.5 µM (inactive) | – | 18.9 µM (inactive) | 21.9 µM (inactive) | 55.5 µM (inactive) | > 100 µM (inactive) | 29.2 µM (inactive) | 34.4 µM (inactive) | 26.4 µM (inactive) | –
